Patent US12390441B2, “Immunomodulating o-het/aryl azalides” (Zoetis Services LLC, priority 2020, dated 2025)

Key:
P. multocida 46572 = experiment: In vivo mouse lung infection challenge model (murine); design: species or system CD-1 female mice
Description: The challenge organism was P. multocida 46572. Target challenge concentration was 5×10^2 CFU/mouse. Isolated colonies from overnight growth (37° C. with 5% CO2) on trypticase soy agar (TSA II) blood plates were transferred to room temperature Brain Heart Infusion Broth (BHIB). The broth culture was incubated 3.5-4 hours to approximately mid-log phase of growth, as measured by forward light scatter at 600 nm (OD600, 0.200). The culture was centrifuged to collect the bacterial pellet. The pellet was re-suspended in BHIB and adjusted to provide an approximate concentration of 2.7 log^10 colony forming units (CFU) in 0.04 mL at the highest concentration. The challenge inoculum concentration was confirmed by serial dilutions of the inoculum for CFU enumeration. On Day −5, CD-1 female mice were received. Mice were given standard rodent diet and water ad libitum. On Day 0, bacterial inoculum (0.04 mL) was administered to each mouse (n=36) intranasally. Compounds of the invention were dosed at 20 mg/kg (0.1 mL) in a buffered (˜pH 5.4) propylene glycol, monothioglycerol and water solution by subcutaneous injection. Animals were observed from Days 1-10. The study was terminated on Day 10. In addition, some treatment groups were sampled at 6, 24, and 48 hours post bacterial challenge for RNA sequence analysis of lung tissue.
The murine efficacy model (P. multocida challenge) was optimized, and the treatment group size was powered to be able to observe statistically significant improvement of survival to expected ranges for immunomodulatory compounds. The experimental design was a randomized complete block design. Mice were individually identified and treatment groups comingled within a cage, with every treatment group equally represented across cages. Mortality was the primary variable. Mortality data was analyzed using a generalized mixed model with fixed effect of treatment and random effect of block. Survival time was also analyzed using the SAS PHREG (survival analysis) procedure to examine whether there were significant differences between treatment groups and the control group. Numerous compounds of the invention and M9 (positive control) were tested in this model at a dose of 20 mg/kg (Table 3). Typical percent survival for no treatment control is in the range of 0-20% based on study to study variation in challenge inoculum and rate of infection. […] Mouse survival for M9 was about 90-100%, further supporting its residual antibacterial properties against the bacterial strain. Harmonized survival accounts for % survival relative to vehicle (“−” control) and M9 (“+” control)) survival data (Table 3).

IL-1β = experiment: Whole blood assay, LPS stimulation, MSD cytokine detection; assay type: cell-based, bovine; conditions: fresh whole bovine blood, LPS stimulation; drug concentration giving overstimulation (OS) of IL-1β
TNF-α = experiment: as above; assay type: cell-based; conditions: Bos taurus, fresh whole bovine blood
IL-6 = experiment: as above; assay type: cell-based; conditions: Bos taurus, fresh whole bovine blood
[1] = harmonized survival relative to vehicle and M9, 20 mg/kg subcutaneous, Day 10

| SMILES | % Survival (P. multocida 46572; 46572, sc, 20 mg/kg, 240 h) [%] | IL-1ß OS of LPS (IL-1β) [µM] | IC50 (TNF-α) [µM] | clinical efficacy, P. multocida infection in mice (P. multocida 46572; mouse, in vivo) | IC50 (IL-6) [µM] | % Survival (P. multocida 46572; [1]) [%] |
| --- | --- | --- | --- | --- | --- | --- |
| CC[C@H]1OC(=O)[C@H](C)[C@@H](O[C@H]2C[C@@](C)(OC)[C@@H](O)[C@H](C)O2)[C@H](C)[C@@H](O[C@@H]2O[C@H](C)C[C@H](NC)[C@H]2Oc2ccccc2)[C@](C)(O)C[C@@H](C)CN(C)[C@H](C)[C@@H](O)[C@]1(C)O [Example A-26, (2R,3S,4R,5R,8R,10R,11R,12S,13S,14R)-2-ethyl-3,4,10-trihydroxy-13-(((2R,4R,5S,6S)-5-hydroxy-4-methoxy-4,6-dimethyltetrahydro-2H-pyran-2-yl)oxy)-3,5,6,8,10,12,14-heptamethyl-11-(((2S,3R,4S,6R)-6-methyl-4-(methylamino)-3-phenoxytetrahydro-2H-pyran-2-yl)oxy)-1-oxa-6-azacyclopentadecan-15-one] | 1 | 16 | 20 | – | – | – |
| CC[C@H]1OC(=O)[C@H](C)[C@@H](O)[C@H](C)[C@@H](O[C@@H]2O[C@H](C)C[C@H](NC)[C@H]2Oc2ccc(F)cc2)[C@](C)(O)C[C@@H](C)CN[C@H](C)[C@@H](O)[C@]1(C)O [Example B-4, (2R,3S,4R,5R,8R,10R,11R,12S,13S,14R)-2-ethyl-11-(((2S,3R,4S,6R)-3-(4-fluorophenoxy)-6-methyl-4-(methylamino)tetrahydro-2H-pyran-2-yl)oxy)-3,4,10,13-tetrahydroxy-3,5,8,10,12,14-hexamethyl-1-oxa-6-azacyclopentadecan-15-one] | 0 | 100 | 50 | clinically efficacious | 50 | – |
| CC[C@H]1OC(=O)[C@H](C)[C@@H](O)[C@H](C)[C@@H](O[C@@H]2O[C@H](C)C[C@H](N(C)C(=O)N(C)c3ccccc3)[C@H]2Oc2ccc(OC)cc2)[C@](C)(O)C[C@@H](C)CN[C@H](C)[C@@H](O)[C@]1(C)O [Example C-1, 1-((2S,3R,4S,6R)-2-(((2R,3S,4R,5R,8R,10R,11R,12S,13S,14R)-2-ethyl-3,4,10,13-tetrahydroxy-3,5,8,10,12,14-hexamethyl-15-oxo-1-oxa-6-azacyclopentadecan-11-yl)oxy)-3-(4-methoxyphenoxy)-6-methyltetrahydro-2H-pyran-4-yl)-1,3-dimethyl-3-phenylurea] | 33 | 16 | 8 | – | 19 | – |
| CC[C@H]1OC(=O)[C@H](C)[C@@H](O)[C@H](C)[C@@H](O[C@@H]2O[C@H](C)C[C@H](N(C)C(=O)N(C)c3ccccc3)[C@H]2Oc2ccccc2)[C@](C)(O)C[C@@H](C)CN[C@H](C)[C@@H](O)[C@]1(C)O [Example C-2, 1-((2S,3R,4S,6R)-2-(((2R,3S,4R,5R,8R,10R,11R,12S, 13S, 14R)-2-ethyl-3,4,10,13-tetrahydroxy-3,5,8,10,12,14-hexamethyl-15-oxo-1-oxa-6-azacyclopentadecan-11-yl)oxy)-6-methyl-3-phenoxytetrahydro-2H-pyran-4-yl)-1,3-dimethyl-3-phenylurea] | 54 | 16 | 27 | – | 32 | – |
| CCCNC[C@]1(O)[C@H](C)O[C@@H](O[C@H]2[C@H](C)[C@@H](O[C@@H]3O[C@H](C)C[C@H](N(C)C)[C@H]3Oc3ccccc3)[C@](C)(O)C[C@@H](C)CN[C@H](C)[C@@H](O)[C@](C)(O)[C@@H](CC)OC(=O)[C@@H]2C)C[C@@]1(C)OC [Example E-3, (2R,3S,4R,5R,8R,10R,11R,12S,13S,14R)-11-(((2S,3R,4S,6R)-4-(dimethylamino)-6-methyl-3-phenoxytetrahydro-2H-pyran-2-yl)oxy)-2-ethyl-3,4,10-trihydroxy-13-(((2R,4R,5S,6S)-5-hydroxy-4-methoxy-4,6-dimethyl-5-((propylamino)methyl)tetrahydro-2H-pyran-2-yl)oxy)-3,5,8,10,12,14-hexamethyl-1-oxa-6-azacyclopentadecan-15-one] | 37 | 13 | 8 | – | – | – |
| CCCNC[C@]1(O)[C@H](C)O[C@@H](O[C@H]2[C@H](C)[C@@H](O[C@@H]3O[C@H](C)C[C@H](NC)[C@H]3Oc3ccc(Cl)nc3)[C@](C)(O)C[C@@H](C)CN[C@H](C)[C@@H](O)[C@](C)(O)[C@@H](CC)OC(=O)[C@@H]2C)C[C@@]1(C)OC [Example E-8, (2R,3S,4R,5R,8R,10R,11R,12S,13S,14R)-11-(((2S,3R,4S,6R)-3-((6-chloropyridin-3-yl)oxy)-6-methyl-4-(methylamino)tetrahydro-2H-pyran-2-yl)oxy)-2-ethyl-3,4,10-trihydroxy-13-(((2R,4R,5S,6S)-5-hydroxy-4-methoxy-4,6-dimethyl-5-((propylamino)methyl)tetrahydro-2H-pyran-2-yl)oxy)-3,5,8,10,12,14-hexamethyl-1-oxa-6-azacyclopentadecan-15-one] | 36 | 100 | 25 | – | 110 | – |
| CCCNC[C@]1(O)[C@H](C)O[C@@H](O[C@H]2[C@H](C)[C@@H](O[C@@H]3O[C@H](C)C[C@H](NC)[C@H]3Oc3ncc(Cl)cn3)[C@](C)(O)C[C@@H](C)CN[C@H](C)[C@@H](O)[C@](C)(O)[C@@H](CC)OC(=O)[C@@H]2C)C[C@@]1(C)OC [Example E-30, (2R,3S,4R,5R,8R,10R,11R,12S,13S,14R)-11-(((2S,3R,4S,6R)-3-((5-chloropyrimidin-2-yl)oxy)-6-methyl-4-(methylamino)tetrahydro-2H-pyran-2-yl)oxy)-2-ethyl-3,4,10-trihydroxy-13-(((2R,4R,5S,6S)-5-hydroxy-4-methoxy-4,6-dimethyl-5-((propylamino)methyl)tetrahydro-2H-pyran-2-yl)oxy)-3,5,8,10,12,14-hexamethyl-1-oxa-6-azacyclopentadecan-15-one] | 22 | 13 | 7 | – | – | – |
| CC[C@H]1OC(=O)[C@H](C)[C@@H](O[C@H]2C[C@@](C)(OC)[C@](O)(CN3CCOCC3)[C@H](C)O2)[C@H](C)[C@@H](O[C@@H]2O[C@H](C)C[C@H](N(C)C)[C@H]2Oc2ccccc2)[C@](C)(O)C[C@@H](C)CN[C@H](C)[C@@H](O)[C@]1(C)O [Example H-3, (2R,3S,4R,5R,8R,10R,11R,12S,13S,14R)-11-(((2S,3R,4S,6R)-4-(dimethylamino)-6-methyl-3-phenoxytetrahydro-2H-pyran-2-yl)oxy)-2-ethyl-3,4,10-trihydroxy-13-(((2R,4R,5S,6S)-5-hydroxy-4-methoxy-4,6-dimethyl-5-(morpholinomethyl)tetrahydro-2H-pyran-2-yl)oxy)-3,5,8,10,12,14-hexamethyl-1-oxa-6-azacyclopentadecan-15-one] | 8 | – | – | – | – | – |
| CCCNC[C@]1(O)[C@H](C)O[C@@H](O[C@H]2[C@H](C)[C@@H](O[C@@H]3O[C@H](C)C[C@H](N(C)C(=O)N(C)c4ccccc4)[C@H]3O)[C@](C)(O)C[C@@H](C)CN[C@H](C)[C@@H](O)[C@](C)(O)[C@@H](CC)OC(=O)[C@@H]2C)C[C@@]1(C)OC [Example H-11] | – | – | – | – | – | 36 |
| CCCNC[C@]1(O)[C@H](C)O[C@@H](O[C@H]2[C@H](C)[C@@H](O[C@@H]3O[C@H](C)C[C@H](N(C)C(=O)N(C)c4ccc(C(F)(F)F)cc4)[C@H]3O)[C@](C)(O)C[C@@H](C)CN[C@H](C)[C@@H](O)[C@](C)(O)[C@@H](CC)OC(=O)[C@@H]2C)C[C@@]1(C)OC [Example H-13] | – | – | – | – | – | 59 |
| CCCNC[C@]1(O)[C@H](C)O[C@@H](O[C@H]2[C@H](C)[C@@H](O[C@@H]3O[C@H](C)C[C@H](N(C)C(=O)N(c4ccccc4)c4ccccc4)[C@H]3O)[C@](C)(O)C[C@@H](C)CN[C@H](C)[C@@H](O)[C@](C)(O)[C@@H](CC)OC(=O)[C@@H]2C)C[C@@]1(C)OC [Example H-39] | – | – | – | – | – | 44 |
| CCCNC[C@]1(O)[C@H](C)O[C@@H](O[C@H]2[C@H](C)[C@@H](O[C@@H]3O[C@H](C)C[C@H](N(Cc4nccs4)C(=O)N(C)c4ccccc4)[C@H]3O)[C@](C)(O)C[C@@H](C)CN[C@H](C)[C@@H](O)[C@](C)(O)[C@@H](CC)OC(=O)[C@@H]2C)C[C@@]1(C)OC [Example H-64] | – | – | – | – | – | 0 |
